Measurements published in patent US20150182667A1, “Composition with Biofilm Dispersal Agents” (Vanderbilt University, priority 2012, published 2015).
Values after ≈ are worked out from the molar mass of the structure shown. Like-named read-outs stand apart in the source and are kept apart here.

Key:
[1] = tested on: P. aeruginosa clinical isolate biofilms; test: Biofilm dispersal and prevention, crystal violet 96-well assay (Example 1); assay type: cell-based, Pseudomonas aeruginosa; settings: 5 mM; for biofilm dispersal against panel of clinical isolates (biofilm biomass OD570): P. aeruginosa clinical isolates, FIGS. 3A, 3C; for biofilm dispersal in pre-screening of eight D-AAs: pre-formed P. aeruginosa biofilms, FIG. 1
Experimental: (§1) Biofilm formation was performed under static conditions in polystyrene 96-well plates (Corning, Inc., Corning, N.Y.). Briefly, overnight bacterial cultures were diluted to an OD600 of 0.1 in CA-MHB and 10 μL was added to individual wells filled with 190 μl of media and incubated at 37° C. for 48 h without shaking for biofilm growth. Following incubation, culture media was removed and 200 μL media containing individual D-AA at concentrations of 5 mM-1 nM was added. Plates were incubated for an additional 24 h at 37° C. After treatment, plates were gently washed with 1× phosphate buffered saline (PBS; pH 7.4) to remove non-adherent bacteria. Biofilms (i.e. attached cells) were then stained with 0.1% (w/v) crystal violet for 10 min, washed, followed by solubilization of crystal violet with 33% (v/v) acetic acid for 10 min. Biofilm biomass was determined by measuring the absorbance at 570 nm using a microtiter plate reader. For assays measuring the ability of D-AA to block biofilm formation, cells were grown under biofilm conditions as above in the presence of media containing D-AA. Three independent experiments with a minimum of 4 replicates were performed for each experimental assay. Representative images of the plates of CV stained biofilms following treatment with D-AA, prior to solubilization, were taken using a digital camera.

[2] = tested on: S. aureus clinical isolates biofilms; test: Biofilm dispersal and prevention, crystal violet assay (Example 3); assay type: cell-based; settings: for dispersal of established biofilms (biofilm biomass): panel of clinical isolates of methicillin-resistant S. aureus (n=5), 5 mM, 24 h, FIGS. 8A, 8C; for biofilm dispersal in pre-screening of eight individual D-AAs: pre-formed biofilms of four clinical isolates, 0.001-50 mM, FIG. 7
Experimental: Like in Example 1, biofilm formation was assessed under static conditions using polystyrene 96-well plates (Corning, Inc.). Overnight bacterial cultures were diluted to an OD600 of 0.1 in TSB (˜10^7 CFU/mL), and 20 μL were added to individual wells filled with 180 μL of media and incubated at 37° C. for 48 h. To assess the biofilm dispersal activity of D-AAs, the culture medium from biofilms was removed after 48 h and 200 μL fresh medium containing either an individual D-AA or an equimolar mixture of D-AAs (1:1:1: D-Met:D-Pro:D-Trp) were added at the indicated concentrations. After treatment with D-AA(s) for 24 h, plates were gently washed with 1× phosphate buffered saline (PBS) to remove unattached cells, stained with 0.1% (w/v) crystal violet (Sigma Aldrich) for 10 min, rinsed with PBS, and then solubilized with 80% (v/v) ethanol. Biofilm biomass was determined by measuring the absorbance of solubilized stain at 570 nm using a microtiter plate reader. For assays measuring the ability of D-AA to block biofilm formation, cells were grown under biofilm conditions as above in the presence of media containing D-AAs. Representative images of the plates of CV-stained biofilms following treatment with D-AA prior to solubilization were taken using a digital camera. All assays were repeated in triplicate with a minimum of four technical replicates.

[3] = Release of D-AAs from PUR scaffolds in PBS (HPLC); assay type: physicochemical; settings: for burst release: day 1, PUR scaffold with 10 wt % 1:1:1 D-Met:D-Pro:D-Trp; for b parameter of Weibull model: fit of D-AA release data
Experimental: Also, kinetic release assays were performed on the PUR scaffolds by incorporating 10 wt % of a 1:1:1 mixture of D-Tr:D-Pro:D-Met incubated in PBS for up to 8 weeks. The medium was be sampled twice weekly and analyzed for D-AAs by HPLC.
PUR scaffolds incorporating 10 wt % of a 1:1:1 mixture of D-Met:D-Pro:D-Trp were incubated in PBS at 37° C. under static conditions for up to 8 weeks. This mixture was evaluated in vitro, in vivo and in the release kinetics tests to account for potential interactions between D-AAs during release. The medium was sampled on days 1, 2, 4, 7, 10, 14, 21, and 28 and analyzed for D-AAs by HPLC using a system equipped with a Waters 1525 binary pump and a 2487 Dual-Absorbance Detector at 200 nm. Samples of released D-AAs were eluted through an Atlantis HILIC Silica column (5 μm particle size, 4.6 mm diameter×250 mm length) using an isocratic mobile phase flowing at 1 mL/min. The mobile phase contained 2.5 mM potassium dihydrogen phosphate with pH=2.85 (A) and Acetonitrile (B) at a ratio of A25:B75. The column oven temperature was maintained at 30° C. Sample concentration was determined in reference to an external standard curve using the Waters Breeze system. Standard curves were prepared in the following concentration ranges: (1) 7.8 μg/mL to 1 mg/mL for D-Met and D-Pro and (2) […] to 100 μg/mL for D-Trp.

[4] = tested on: S. aureus clinical isolate biofilms; test: Biofilm dispersal and prevention, crystal violet 96-well assay (Example 1); assay type: cell-based, Staphylococcus aureus; settings: 5 mM; for biofilm dispersal against panel of clinical isolates (biofilm biomass OD570): S. aureus clinical isolates, FIGS. 3A, 3C; for biofilm dispersal in pre-screening of eight D-AAs: pre-formed S. aureus biofilms, FIG. 1
Experimental: as §1

human dermal fibroblasts = test: CellTiter-Fluor cell viability assay; assay type: cell-based
Experimental: (§2) To observe the cellular viability of PUR/D-AA composites, human dermal fibroblasts and human osteoblasts (PromoCell) were maintained in Dulbecco's Modified Eagle Medium (DMEM; Invitrogen) supplemented with 10% Fetal Bovine Serum (FBS) and 1× penicillin/streptomycin. Human epidermal keratinocytes (HEK-001; ATCC CRL-2404) were maintained in Keratinocyte-serum free media (GIBCO) supplemented with 5 ng/mL human recombinant EGF and 2 mM L-glutamine. All cell lines were cultured at 37° C. in 5% CO2. Prior to each assay cells were seeded at 100% confluence in black-clear bottom 96-well plates. After 24 h, cells were exposed to media containing D-AA, 50 mM-1 nM, and incubated for 24-48 h at 37° C. in 5% CO2. Following treatment, cells were washed, resuspended in 100 μL of sterile saline and viability was determined using the CellTiter-Flour Cell Viability Assay (Promega) following the manufacturer's instructions. Viability assays were performed in triplicate with a minimum of 3 replicates. Viability was reported as the percentage of viable cells relative to untreated controls.
(§3) Human dermal fibroblasts and osteoblasts (PromoCell, Heidelberg, Germany) were maintained in Dulbecco's Modified Eagle Medium (DMEM; Invitrogen, Grand Island, N.Y.) supplemented with 10% Fetal Bovine Serum (FBS) and 1× penicillin/streptomycin at 37° C. in 5% CO2. Prior to each assay, cells were seeded at 100% confluence in black-clear bottom 96-well plates. After 24 h cells were exposed to media containing D-AA (1 nM-50 mM) and incubated for 24 h. Following treatment, cells were washed, re-suspended in 100 μL of sterile saline, and assessed for viability using the CellTiter-Fluor Cell Viability Assay (Promega, Madison, Wis.) following the manufacturer's instructions. Viability assays were performed in triplicate with a minimum of four replicates. Viability was reported as the percentage of viable cells relative to untreated controls.

[5] = tested on: biofilm derived P. aeruginosa clinical strains (18189, 418); test: Biofilm susceptibility, Calgary Biofilm device (MBEC plates): MBIC and viable CFU; assay type: cell-based, Pseudomonas aeruginosa; settings: * = with 5 mM D-AA; for Biofilm (MBIC) 418: P. aeruginosa 418 biofilm; for Biofilm (MBIC) 18189: P. aeruginosa 18189 biofilm
Experimental: Biofilm susceptibility to antimicrobial agents in the presence and absence of D-AA was determined using the Calgary Biofilm device. Briefly, biofilms from overnight cultures were established as above on individual pegs of the minimum biofilm eradication concentration (MBEC) plates (Innovotech, Canada) with agitation for 48 h at 37° C. Following incubation, the lid with pegs was removed from the incubation plate, washed by re-suspending pegs into plate with wells containing 200 μl of 1×PBS, then placed into a 96-well challenge plate containing pre-diluted antibiotics with or without an […] for an additional 24 h at 37° C. Following challenge plates were washed, and the attached viable cells on PEGs within the biofilm were determined by plating serial dilutions onto blood agar plates (Remel). Corresponding minimal biofilm inhibitory concentration (MBIC) was also determined by measuring the optical density in individual wells of the challenge plate at 600 nm. The lowest concentration of antibiotic for which an optical density of <0.100 was recorded as the MBIC. For each antibiotic, the MBIC was determined in the presence or absence of a mixture of D-AA (D-Phenylalanine, D-Methionine, and D-Tryptophan) at an equimolar concentration of 5 mM. Three independent experiments were performed for each of these assays, with a minimum of 3 replicates.

[6] = tested on: planktonic P. aeruginosa clinical strains (18189, 418); test: MIC by CLSI broth microdilution, planktonic bacteria; assay type: cell-based, Pseudomonas aeruginosa; settings: * = with 5 mM D-AA; for MIC: Pseudomonas aeruginosa
Experimental: Overnight cultures of bacterial strains were diluted to a final concentration of 5×10^5 CFU/ml in MHB-II. The resulting bacterial suspension was aliquoted (100 μL) into polystyrene round-bottom 96-well plates containing 100 μL of a 2× concentration of a previously serially diluted (1:2) antibiotic. Each antimicrobial tested was serially diluted 10 times. Following the addition of bacteria, the microtiter plate was covered and was incubated under stationary conditions at 37° C. in the presence of 1× antibiotics. […] MICs of antibiotics were determined in triplicate according to the Clinical and Laboratory Standards Institute (CLSI) broth microdilution as described by the performance standards for antimicrobial susceptibility testing (M100-S22, January 2012).

S. aureus Xen 36A = test: Contaminated 6-mm excisional cutaneous wounds in mice; assay type: in vivo, C57BL/6 mice; settings: 2×10^6 CFU, collagen gel with 5% D-Trp, 1 and 3 days, not shown
Experimental: 6-mm excisional wounds in C57BL/6 mice (6-8 weeks), which had previously been shaved and sterilized, were made. The mice were contaminated with 2×10^6 or 2×10^7 CFU S. aureus Xen 36A (Perkin Elmer, Waltham, Mass.). Approximately 2-3 minutes following exposure to bacteria, collagen gels (hydrogel, HG) with and without 5% D-Trp were applied to the wounds for about 5 minutes before applying a Tegaderm bandage (3M, St. Paul, Minn.). Wounds were monitored daily for up to 3 days. At 1 and 3 days post-infection mice were evaluated using the IVIS (to visualized bioluminescent bacteria within wounds) and the wound tissues were harvested, homogenized, and plated on blood agar to enumerate bacteria within wound (CFU/mL/g tissue).

[7] = Release of D-Trp from collagen gel; assay type: physicochemical; settings: collagen gel with 5% D-Trp
human osteoblasts = test: CellTiter-Fluor cell viability assay; assay type: cell-based; settings: 24 h
Experimental: as §2, §3

[8] = PUR scaffold with 10 wt % D-AA mixture, PBS 37° C.
[9] = P. aeruginosa 418, read-out: Planktonic (MIC) 418
[10] = P. aeruginosa 18189, read-out: Planktonic (MIC) 18189

| Planktonic (MIC) 418 ([6]; P. aeruginosa 418) [µg/mL] | Planktonic (MIC) 18189 ([6]; P. aeruginosa 18189) [µg/mL] | MIC [6, 9] [µg/mL] | MIC [6, 10] [µg/mL] | SMILES | biofilm dispersal against panel of clinical isolates (biofilm biomass OD570) [1] | biofilm dispersal in pre-screening of eight D-AAs [1] | dispersal of established biofilms (biofilm biomass) [2] | biofilm dispersal in pre-screening of eight individual D-AAs [2] | burst release ([3]; PBS 37° C.) [%] | b parameter of Weibull model [3] | biofilm dispersal against panel of clinical isolates (biofilm biomass OD570) [4] | biofilm dispersal in pre-screening of eight D-AAs [4] | Biofilm (MBIC) 418 [5] [µg/mL] | Biofilm (MBIC) 18189 [5] [µg/mL] | other results |
| --- | --- | --- | --- | --- | --- | --- | --- | --- | --- | --- | --- | --- | --- | --- | --- |
| – | – | – | – | CSCC[C@@H](N)C(=O)O [D-Met, D-methionine] | capable of significantly dispersing biofilm formation | relatively more effective at dispersing biofilms | effective at dispersing established biofilms | effective at dispersing biofilms | 60 | 0.56 | capable of significantly dispersing biofilm formation | relatively more effective at dispersing biofilms | – | – | cumulative release by day 14 [3, 8]: ~100%; cytotoxicity (human dermal fibroblasts; human fibroblasts, higher concentrations): cytotoxicity was also observed |
| 64 | 128 | 128 (≈ 428 µM) | 64 (≈ 214 µM) | C[C@@H](O)[C@H]1C(=O)N2C(C(=O)O)=C(SCCN=CN)C[C@H]12 [IMI, Imipenem] | – | – | – | – | – | – | – | – | >128 | >128 | – |
| – | – | – | – | N[C@H](Cc1c[nH]c2ccccc12)C(=O)O [D-Trp, D-tryptophan] | capable of significantly dispersing biofilm formation | relatively more effective at dispersing biofilms | effective at dispersing established biofilms | effective at dispersing biofilms | 25 | 0.21 | capable of significantly dispersing biofilm formation | relatively more effective at dispersing biofilms | – | – | wound contamination (bioluminescence imaging and bacterial counts) (S. aureus Xen 36A): reduced contamination; release in 1 day [7]: about 80%; time to complete release [7]: ≤ 3 days; fraction released at 4 weeks ([3]; PUR scaffold with 10 wt % D-AA mixture): less than 40%; cumulative release by day 28 [3, 8]: 44%; cytotoxicity (human dermal fibroblasts; dermal fibroblasts, 50 and 25 mM, 24 h): toxic; viability (percentage of viable cells relative to untreated controls) (human dermal fibroblasts; dermal fibroblasts, concentrations exceeding 12.5 mM, 24 h): ~60%; cytotoxicity (human dermal fibroblasts; dermal fibroblasts, effective range 1-5 mM, 24 h): minimal cytotoxicity; cytotoxicity (human osteoblasts; 50 and 25 mM): toxic; viability (percentage of viable cells relative to untreated controls) (human osteoblasts; concentrations exceeding 12.5 mM): ~60%; cytotoxicity (human osteoblasts; effective range 1-5 mM): minimal cytotoxicity |
| 16 | 16 | 16 (≈ 27.3 µM) | 16 (≈ 27.3 µM) | NCC[C@H](O)C(=O)N[C@@H]1C[C@H](N)[C@@H](O[C@H]2O[C@H](CN)[C@@H](O)[C@H](O)[C@H]2O)[C@H](O)[C@H]1O[C@H]1O[C@H](CO)[C@@H](O)[C@H](N)[C@H]1O [AMK, Amikacin] | – | – | – | – | – | – | – | – | >256 | >256 | – |
